Measurements published in paper PMC12040169 (PLOS Biology, 2025).

Assay: in vitro
Conditions: human, hela cells

Structure (SMILES) | viability at 28.5 h, 10 µM [%]
NC(=O)COC(=O)COc1ccc(Cl)cc1Cl [CBK058628] | 85.8

Same assay, conditions: human, hela cells, % viability

Structure (SMILES) | viability at 28.5 h, 10 µM [%]
Cc1ccc(/C=C2\SC(=S)N(CC(=O)Nc3cccc(C(=O)O)c3)C2=O)cc1 [CBK263935] | 86.2
CC(C)C(=O)Nc1ccc2c(-c3ccc4c(c3)CCO4)ccnc2n1 [CBK073672] | 87.7
Cc1ccc(C(=O)CN2CCCC3(C2)NCCc2c3[nH]c3c(C)cccc23)cc1 (stereo not shown) [CBK039546] | 96
CCN1CCCN(c2ccnc(OCCN3CCOCC3)n2)CC1 [CBK083807] | 114
CS(=O)(=O)N(CC(=O)Nc1ccccc1F)c1ccc(I)cc1 [CBK265265] | 97.4
CC(C)C(=O)NC(c1ccco1)c1ccc2cccnc2c1O (stereo not shown) [CBK263277] | 96.5
CC(NCc1ccncc1)=C1C(=O)c2ccccc2C1=O [CBK262890] | 105
COc1cccc(-c2cncc(C3CCCN(Cc4ccc5[nH]ccc5c4)C3)n2)c1 (stereo not shown) [CBK286151] | 84.7
COc1ccc([C@@]23CCN(C(=O)c4ccc(Cl)c(Cl)c4)C[C@@H]2CN(C)C3)cc1OC [CBK074308T] | 99.4
Cc1[nH]c(C(=O)NCCc2ccco2)c(C)c1C(=O)OC(C)C [CBK295180] | 84.1
CCOc1ccccc1-c1ccccc1NC(=O)c1ccc2c(c1)ncn2C1CC1 [CBK285808] | 84.3
COc1ccc2c(CC(=O)Nc3cccc(-c4csc(C)n4)c3)coc2c1 [CBK295149] | 94
Cn1cnc(S(=O)(=O)Nc2cccc3cc[nH]c23)c1 [CBK159554] | 94
CC(C)Nc1cncc(OCc2cccnc2)n1 [CBK115879] | 102
Cc1cc(CN2CCOCC2)oc1C(=O)O [CBK263239C] | 104
NS(=O)(=O)c1ccc(CCNC(=O)c2ccc(Cl)c([N+](=O)[O-])c2)cc1 [CBK264395] | 94.8
Cc1oc2c(CN(C)C)c(O)ccc2c(=O)c1-c1cnn(-c2ccccc2)c1 [CBK264496] | 101
CN1CCN(c2cccc(-c3ccc(CNC(=O)OC(C)(C)C)cc3)n2)CC1 [CBK037641] | 95.2
CCOc1cc(C)c(Cl)cc1S(=O)(=O)NCc1ccccn1 [CBK268047] | 108
COc1cccc(NC(=O)CCN2CCN(CCO)CC2)c1 [CBK264207C] | 88.3
COc1ccc(C2(CNC(=O)c3ccc(C)cc3)CCOCC2)cc1 [CBK067060] | 108
O=C1CCC(=O)N1CCOc1nccnc1N1CCN(CCc2ccc3ccccc3c2)CC1 [CBK084307] | 96.4

Structure (SMILES) | viability at 28.5 h, 10 µM [%]
CCOc1ccc(NC(=O)CCc2ncc(C(C)(C)C)o2)c(C)c1 [CBK306021] | 104
Cc1ccc(C(=O)NNC(=S)Nc2ccc(S(N)(=O)=O)cc2)cc1[N+](=O)[O-] [CBK266866] | 95.6
COc1cc(CN2CCC3(CC2)CN(C(=O)CO)c2ccccc23)cc(OC)c1OC [CBK131494] | 94
COC(=O)c1c(C)c(C(C)=O)n(C)c1C [CBK012459] | 117
c1ccc2oc(-c3cncc(NCCc4c[nH]c5ccccc45)n3)cc2c1 [CBK066068] | 93.1
Cc1nc2c(c(=O)[nH]1)CN(Cc1c[nH]c3ccccc13)CC2 [CBK282327] | 102
CCOC(=O)Cn1c(C)nc2ccccc21 [CBK115311] | 103
Cc1ccc(C)c(S(=O)(=O)NCC(=O)Nc2nsc(-c3ccccc3)n2)c1 [CBK267304] | 97.4
CC(C)[C@H](NC(=O)C1CC(=O)N(c2ccc(F)cc2)C1)C(=O)N1CCCC1C(=O)O (stereo partly shown) [CBK286723] | 95
COc1ccc(S(=O)(=O)NCC(=O)O)cc1OC [CBK034454] | 96.2
c1cncc(COc2cncc(OC3CCN(CCN4CCOCC4)C3)n2)c1 (stereo not shown) [CBK084463] | 99.7
Cc1csc(NC(=O)C2CC(=O)N(C3CCCC3)C2)n1 (stereo not shown) [CBK175501] | 107
Oc1cccc(-c2nccnc2N2CCN(c3ccncc3)CC2)c1 [CBK037079] | 113
COc1ccccc1OCc1cc(C)c(C(=O)N2CCN(C)CC2c2ccccc2)o1 (stereo not shown) [CBK286273] | 89.3
NC(=O)CN1CCC(Oc2nccnc2OCc2ccc(Cl)c(Cl)c2)CC1 [CBK083110] | 104
O=C(Cn1nc(C(=O)O)c2ccccc2c1=O)c1ccc(S(=O)(=O)N2CCOCC2)cc1 [CBK296939] | 90.2
CS(=O)(=O)N1CC[C@H](c2nc3cc(Cl)ccc3o2)C1 [CBK289370] | 86
COc1ccc(S(=O)(=O)Nc2ccccc2C(=O)Nc2ccc(F)cc2)cc1OC [CBK045404] | 91.2
Cc1nc(-c2cccnc2)[nH]c(=O)c1CC(=O)N(C)C1CCCC1 [CBK304907] | 83
NC(=O)c1ccc(NC(=O)CCCc2nc(-c3ccccc3Cl)no2)cc1 [CBK268932] | 103
Cc1cc2c(cc1C)NC(CC(=O)Nc1cccc(Br)c1)C(=O)N2 (stereo not shown) [CBK269548] | 73.3
O=C(NCc1ccco1)c1ccccc1NS(=O)(=O)c1ccc(Br)s1 [CBK077969] | 79.9

Structure (SMILES) | viability at 28.5 h, 10 µM [%]
CC(C)(C)OC(=O)N1CCN(c2ccccc2O)CC1 [CBK003878] | 94.5
CC(C)c1nnc(NS(=O)(=O)Cc2ccccc2)s1 [CBK045540] | 93
CCN(CC)C(=O)CN1CCC(Oc2cncc(OCc3ccc(Cl)c(Cl)c3)n2)C1 (stereo not shown) [CBK084431] | 98.2
O=C1N=C(NC2CCCCC2)SC1Cc1nc2ccccc2o1 (stereo not shown) [CBK067970] | 96.4
O=C(CCc1ccc(-c2ccc(F)cc2)o1)Nc1ccc(C(=O)O)cc1 [CBK300502] | 99
COc1ccc2c(CCNC(=O)C(c3ccccc3)c3ccccc3)c[nH]c2c1 [CBK269294] | 81.3
O=C(NCCN1CCOCC1)c1ccc(-c2ccco2)nc1NCc1cccnc1 [CBK076112] | 101
O=C(CC(CN1CCN(Cc2cccc(Cl)c2)CC1)C(=O)O)Nc1cccc(O)c1 (stereo not shown) [CBK286811] | 88.9
O=C(Cn1nnc2ccccc21)Nc1ccc(Cl)cn1 [CBK296068] | 97.9
O=c1[nH]c2ccc(NS(=O)(=O)c3ccc4c(c3)OCCCO4)cc2[nH]1 [CBK295315] | 87.7
Cc1ccc(C(=O)NC(Cc2cccs2)c2ccccn2)c(=O)[nH]1 (stereo not shown) [CBK285210] | 89.8
C[C@@H]1CN(C)CCN1c1nccnc1OCCOc1cccnc1OCCCCCN(C)C [CBK051566] | 103
NC1CCN(C(=O)c2cc3ccccc3[nH]2)CC1 [CBK013294] | 89.7
CCCCC(c1cccnc1)N(C)C(=O)c1cc(C)c(CC)n(C)c1=O (stereo not shown) [CBK306999] | 88.5
O=C(CN1C(=O)c2ccccc2S1(=O)=O)Nc1ccccc1C(=O)N1CCOCC1 [CBK266975] | 93.3
COc1ccc(OC(=O)C2COc3ccccc3O2)cc1 (stereo not shown) [CBK131816] | 100
CCCC(=O)N1CCCCC1c1nn(C)cc1-c1onc(C)c1C (stereo not shown) [CBK283409] | 80.5
CC(C)(C)NS(=O)(=O)c1ccccc1[N+](=O)[O-] [CBK260932] | 97.8
O=C(CN1CC(O)CC1c1cccc(C(F)(F)F)c1)NCc1cccs1 (stereo not shown) [CBK305253] | 82.6
COc1ccc(CCC(=O)N2CCCC2c2cc(Nc3nccs3)cc(C)n2)cc1 (stereo not shown) [CBK285939] | 90
CC(C)(C)OC(=O)N1CCC(CNS(=O)(=O)c2ccc3c(c2)OCCO3)CC1 [CBK076971] | 90.6
CC(C)(C)c1cc(C(=O)N2CCn3cc(C(F)(F)F)nc3C2)[nH]n1 [CBK284748] | 87.7

Structure (SMILES) | viability at 28.5 h, 10 µM [%]
Cc1ccc(-c2cccc(N3CCN(CCN4CCCC4)CC3)n2)cc1C [CBK037799] | 113
CC(=O)N(C)c1ncc(Br)cc1C(=O)NCCc1ccccc1 [CBK076543] | 93.8
Cc1cn(CC(=O)NCC2(c3cccc(F)c3)CCCC2)nn1 [CBK281436] | 89.7
CCOc1ccccc1-n1c(CN2CCN(C(=O)c3ccco3)CC2)nc2ccccc2c1=O [CBK267203] | 86.4
Cc1ccc2c(c1)C(=O)CC1(CCN(C(=O)Cc3c(C)[nH]c(=O)[nH]c3=O)CC1)O2 [CBK285688] | 91.6
O=C(NC(=S)N1C[C@@H]2C[C@@H](C1)c1cccc(=O)n1C2)c1ccco1 [CBK288492] | 110
CC[C@@H](Cn1nc2c(cc1=O)CCCCC2)NC(=O)c1ccco1 [CBK284553] | 78.2
O=C(O)C1CCN(C(=O)CCC2CCCCC2)CC1 [CBK286804] | 89.3
CCOC(=O)C1=C(C)Nc2nc(C)nc(Cl)c2O1 [CBK021504] | 103
Cc1ccc(S(=O)(=O)N(CC(=O)O)c2ccccc2C)cc1 [CBK262423] | 101
NC1CC(c2cc(NCCCc3nnc4ccccn34)ncn2)C1 (stereo not shown) [CBK307120] | 104
N#C/C(=C/c1ccc(OCc2cccc(C(=O)O)c2)cc1)c1ccc([N+](=O)[O-])cc1 [CBK266626] | 89.6
COc1ccc(N2C(=O)c3ccc(C(=O)Nc4ccccc4C(=O)O)cc3C2=O)cc1O [CBK262833] | 97.8
N#Cc1c(NC(=O)CSc2nnc(-c3ccc(Cl)cc3)o2)oc(-c2ccccc2)c1-c1ccccc1 [CBK267655] | 93.9
COc1ccc(CCNC(=O)N2CCCC(C(=O)O)C2)cc1 (stereo not shown) [CBK161367] | 101
c1ccc(-c2nn3c(Cn4nnc5ccccc54)nnc3s2)cc1 [CBK268271] | 106
CCCNS(=O)(=O)c1cc(C(=O)O)ccc1OC [CBK287152] | 98
O=C(Nc1nnc(C2=COCCO2)o1)c1cc(Cl)cc(Cl)c1 [CBK287418] | 91.1
N#Cc1cc2c(=O)n(-c3ccccn3)ccc2[nH]c1=O [CBK288119] | 94.5

Same assay, conditions: human, hela cells, % viability, bulk resorufin, single well

Structure (SMILES) | viability at 28.5 h, 10 µM [%]
O=C1NC(=S)N(Cc2ccco2)C(=O)/C1=C\c1ccc(-c2ccc(Cl)c(C(=O)O)c2)o1 [CBK265584] | 90.1
O=C(CCC1C(=O)NC(=O)NC1=O)Nc1ccc(Oc2ccc(F)cc2)cc1 [CBK285712] | 88
